Data published in publication PMC3769509 (Nuclear medicine and biology, 2013).
“And” between values parts separate entries of the source, which are not always exact repeats. Equal values may be shown once.

Legend:
[1] = PET studies: brain pharmacokinetics; conditions: baboon, iv
[2] = PET studies: plasma analysis of unchanged radiotracer; conditions: baboon, iv; for fraction of radioactivity in plasma as unmetabolized compound: 30 min after administration
[3] = PET studies: biodistribution in peripheral organs; conditions: baboon, iv
[4] = epilepsy patients, after intravenous infusions; cited from earlier work
[5] = Ex vivo rat brain analysis after [11C]BA administration; format: in vivo; conditions: 5 min and 30 min after administration, data not shown
Free fraction in plasma = format: in vitro ADME; conditions: baboon plasma
Lipophilicity at pH 7.4 = format: physicochemical
[6] = parent and/or labeled metabolites

CCCC(=O)O [BA, n-butyric acid]
brain uptake of carbon-11 [1]: < 0.006 %ID/cc

O=C(O)CCCc1ccccc1 [PBA, 4-phenylbutyric acid]
brain uptake of carbon-11 [1]: < 0.006 %ID/cc | fraction of radioactivity in plasma as unmetabolized compound [2]: 85% | high uptake in vertebrae [3]: not observed

CCCC(CCC)C(=O)O [VPA, 2-propylpentanoic acid]
brain uptake of carbon-11 [1]: < 0.006 %ID/cc and 0.004 %ID/cc | fraction of radioactivity in plasma as unmetabolized compound [2]: 98% | free VPA in plasma [4]: 9–15% | high uptake in vertebrae [3]: not observed | uptake in heart [3, 6]: remarkably high

CCC[11C](=O)O [[^11C]BA, [^11C]Butyric Acid]
intact [11C]BA fraction in brain [5]: very low | brain uptake of carbon-11 [1]: ~ 0.006 %ID/cc | % unbound in plasma (Free fraction in plasma): 82±0.4 (n=2) % | high uptake in vertebrae [3]: high uptake | uptake in heart [3, 6]: very low | uptake in pancreas [3, 6]: relatively high and high | uptake in spleen [3, 6]: relatively high and high

O=[11C](O)CCCc1ccccc1 [[^11C]PBA, [^11C]-4-Phenylbutyric Acid]
Log D at pH 7.4 (Lipophilicity at pH 7.4): −0.20±0.03 (n=6) | brain uptake of carbon-11 [1]: ~ 0.006 %ID/cc | % unbound in plasma (Free fraction in plasma): 1.5±0.7 (n=6) % | uptake in heart [3, 6]: moderate | uptake in liver [3, 6]: high

CCCC(CCC)[11C](=O)O [[^11C]VPA, [^11C]Valproic Acid]
Log D at pH 7.4 (Lipophilicity at pH 7.4): 0.26±0.03 (n=5) | intact fraction in plasma ([2]; over 90 min): > 90% | % unbound in plasma (Free fraction in plasma): 26±0.3 (n=2) % | uptake in heart [3, 6]: exceptionally high
